Experimental data taken from patent publication US10953012B2, “Heterocyclic compounds for the inhibition of pask” (BioEnergenix LLC, priority 2011, dated 2021).

Legend:
PASK [1] = molecular target: PASK (UniProt #Q96RG2; residues 879-1323) (Homo sapiens (Human), UniProt Q96RG2); experiment: PASK ATP Radiochemical Assay; assay type: biochemical; conditions: 33P-ATP radiochemical assay; read-out: IC50 Kinase Domain
Method: PASK ATP Radiochemical Assay Purified PASK (UniProt #Q96RG2; human recombinant N-terminal GST tagged construct, residues 879-1323) from insect cells (final concentration 5 nM) is added to freshly prepared Base Reaction Buffer containing 20 mM HEPES (pH 7.5), 10 mM MgCl2, 1 mM EGTA, 0.02% Brij35, 0.02 mg/ml BSA, 0.1 mM Na3VO4, 2 mM DTT, 1% DMSO and Myelin Basic Protein (20 μM final). Test compounds in DMSO are then added and the mixture, followed by delivery of ^33P-ATP (specific activity 0.01 μCi/μl final) to initiate the reaction. The kinase reaction is incubated for 120 min at room temperature. The entire reaction mixture is washed through onto a P81 Phosphocellulose paper and washed three times for 10 minutes in 75 mM phosphoric acid and once in methanol prior to drying and scintillation counting.

PASK [2] = molecular target: PASK (Homo sapiens (Human), UniProt Q96RG2); experiment: PAS Kinase FRET Assay; assay type: biochemical; conditions: TR-FRET assay; read-out: IC50 Kinase Domain
Procedure, shortened: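 Reaction buffer: 50 mM HEPES, 10 mM MgCl2, 1 mM EGTA, 2 mM DTT, 0.01% Tween-20. Test compounds (eleven-point series prepared at 4× final) preceded PASK and substrate/ATP. Reaction ran 2 h at 25 °C in the dark, then stopped. Phospho-ULight peptide detected by Eu-antibody TR-FRET, 665/615 nm ratio.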

CK2a2 = CK2a2 (Homo sapiens (Human), UniProt P19784); experiment: Biochemical Assay for CK2 Activity; conditions: 33P-ATP radiochemical assay; read-out: IC50 CK2 a2
Method: Biochemical Assay for CK2 Activity
Purified CK2a2 (NP_001887; human full-length protein, GST tagged) from insect cells (final concentration 1.2 nM) is added to freshly prepared Base Reaction Buffer containing 20 mM Hepes (pH 7.5), 10 mM MgCl2, 1 mM EGTA, 0.02% Brij35, 0.02 mg/ml BSA, 0.1 mM Na3VO4, 2 mM DTT, 1% DMSO and CK2 sub [RRRDDDSDDD] (20 μM final). Test compounds in DMSO are then added and the mixture, followed by delivery of ^33P-ATP (specific activity 0.01 μCi/μl final) to initiate the reaction. The kinase reaction is incubated for 120 min at room temperature. The entire reaction mixture is washed through onto a P81 Phosphocellulose paper and washed three times for 10 minutes in 75 mM phosphoric acid and once in methanol prior to drying and scintillation counting.

Chain of PASK (Homo sapiens (Human), UniProt Q96RG2) (Q96RG2 999-1251): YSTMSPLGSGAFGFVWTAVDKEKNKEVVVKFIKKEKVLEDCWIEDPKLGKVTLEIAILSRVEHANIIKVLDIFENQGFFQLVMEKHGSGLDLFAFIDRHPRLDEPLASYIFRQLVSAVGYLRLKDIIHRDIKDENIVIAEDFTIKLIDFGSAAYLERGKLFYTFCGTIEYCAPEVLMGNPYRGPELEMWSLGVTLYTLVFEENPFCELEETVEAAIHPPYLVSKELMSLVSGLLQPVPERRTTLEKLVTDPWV
Chain of CK2a2 (P19784 whole entry): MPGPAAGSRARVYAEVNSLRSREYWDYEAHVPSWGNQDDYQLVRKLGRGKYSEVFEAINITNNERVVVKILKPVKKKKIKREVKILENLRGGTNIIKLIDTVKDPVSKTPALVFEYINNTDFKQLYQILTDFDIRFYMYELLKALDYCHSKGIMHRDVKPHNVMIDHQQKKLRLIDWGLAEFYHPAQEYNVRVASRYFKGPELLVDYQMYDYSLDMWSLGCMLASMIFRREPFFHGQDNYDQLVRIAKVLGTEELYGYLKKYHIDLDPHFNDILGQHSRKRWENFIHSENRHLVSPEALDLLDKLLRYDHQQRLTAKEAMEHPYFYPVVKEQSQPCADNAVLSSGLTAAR
Chain of PASK (UniProt #Q96RG2; residues 879-1323) (Homo sapiens (Human), UniProt Q96RG2) (Q96RG2 879-1323): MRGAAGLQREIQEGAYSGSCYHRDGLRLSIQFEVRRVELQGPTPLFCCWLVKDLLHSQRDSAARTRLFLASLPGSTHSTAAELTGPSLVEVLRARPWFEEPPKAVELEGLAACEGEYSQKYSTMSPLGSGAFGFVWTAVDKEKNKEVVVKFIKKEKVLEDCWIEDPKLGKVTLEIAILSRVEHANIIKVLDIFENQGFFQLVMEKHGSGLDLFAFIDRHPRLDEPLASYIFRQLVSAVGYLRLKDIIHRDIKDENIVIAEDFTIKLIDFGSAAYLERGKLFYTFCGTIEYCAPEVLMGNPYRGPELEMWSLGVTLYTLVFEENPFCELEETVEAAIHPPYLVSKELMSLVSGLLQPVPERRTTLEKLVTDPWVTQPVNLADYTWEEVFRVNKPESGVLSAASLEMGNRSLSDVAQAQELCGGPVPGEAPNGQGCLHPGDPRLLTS

IC50 (PASK [1]) | IC50 (PASK [2]) | IC50 (CK2a2) | SMILES
≤ 10 µM | ≤ 10 µM | ≥ 10 µM | CCCc1c(C)nn2c(=O)cc(-c3ccc(OC)cc3)[nH]c12 [Example 71, 5-(4-Methoxyphenyl)-2-methyl-3-propylpyrazolo[1,5-a]pyrimidin-7(4H)-one]
≤ 10 µM | ≤ 10 µM | ≤ 10 µM | COc1ccc(-c2cc(=O)n3ncc(-c4cccnc4)c3[nH]2)cc1 [Example 72, 5-(4-Methoxyphenyl)-3-(pyridin-3-yl)pyrazolo[1,5-a]pyrimidin-7(4H)-one]
≤ 10 µM | ≤ 10 µM | ≤ 10 µM | Cc1nn2c(=O)cc(-c3ccc4ncccc4c3)[nH]c2c1Cc1ccccc1 [Example 73, 3-Benzyl-2-methyl-5-(quinolin-6-yl)pyrazolo[1,5-a]pyrimidin-7(4H)-one]
≤ 10 µM | ≤ 10 µM | ≤ 10 µM | Cc1nn2c(=O)cc(-c3ccc4c(c3)OCO4)[nH]c2c1Cc1cccc(Cl)c1 [Example 75, 3-(3-Chlorobenzyl)-5-(benzo[d][1,3]dioxol-5-yl)-2-methylpyrazolo[1,5-a]pyrimidin-7(4H)-one]
≤ 10 µM | ≤ 10 µM | ≤ 10 µM | Cc1nn2c(=O)cc(-c3ccc4c(c3)OCO4)[nH]c2c1Cc1ccc(Cl)cc1 [Example 76, 3-(4-Chlorobenzyl)-5-(benzo[d][1,3]dioxol-5-yl)-2-methylpyrazolo[1,5-a]pyrimidin-7(4H)-one]
≤ 10 µM |  | ≤ 10 µM | Cc1nn2c(=O)cc(-c3cccnc3)[nH]c2c1-c1ccc(F)cc1 [Example 77, 3-(4-Fluorophenyl)-2-methyl-5-(pyridin-3-yl)pyrazolo[1,5-a]pyrimidin-7(4H)-one]
≤ 10 µM |  | ≤ 10 µM | O=c1cc(-c2ccccn2)[nH]c2c(-c3ccc(F)cc3)cnn12 [Example 79, 3-(4-Fluorophenyl)-5-(pyridin-2-yl)pyrazolo[1,5-a]pyrimidin-7(4H)-one]
≤ 10 µM | ≤ 10 µM | ≤ 10 µM | Cc1nn2c(=O)cc(-c3ccc4c(c3)OCCO4)[nH]c2c1-c1ccc(F)cc1 [Example 81, 5-(2,3-Dihydrobenzo[b][1,4]dioxin-6-yl)-3-(4-fluorophenyl)-2-methylpyrazolo[1,5-a]pyrimidin-7(4H)-one]
≤ 10 µM | ≤ 10 µM | ≤ 10 µM | COc1cccc(-c2cnn3c(=O)cc(-c4ccc5c(c4)OCCO5)[nH]c23)c1 [Example 92, 5-(2,3-Dihydrobenzo[b][1,4]dioxin-6-yl)-3-(3-methoxyphenyl)pyrazolo[1,5-a]pyrimidin-7(4H)-one]
≤ 10 µM | ≤ 10 µM |  | O=c1cc(-c2cc3ccccc3o2)[nH]c2c(-c3ccccn3)cnn12 [Example 93, 5-(Benzofuran-2-yl)-3-(pyridin-2-yl)pyrazolo[1,5-a]pyrimidin-7(4H)-one]
≤ 10 µM |  | ≤ 10 µM | O=c1cc(-c2ccc3cc[nH]c3c2)[nH]c2c(-c3ccccc3)cnn12 [Example 95, 5-(1H-Indol-6-yl)-3-phenylpyrazolo[1,5-a]pyrimidin-7(4H)-one]
≤ 10 µM | ≤ 10 µM | ≤ 10 µM | O=c1cc(-c2ccc3c(c2)CCO3)[nH]c2c(-c3ccccn3)cnn12 [Example 96, 5-(2,3-Dihydrobenzofuran-5-yl)-3-(pyridin-2-yl)pyrazolo[1,5-a]pyrimidin-7(4H)-one]
≤ 10 µM | ≤ 10 µM | ≤ 10 µM | O=c1cc(-c2ccc3occc3c2)[nH]c2c(-c3ccccc3)cnn12 [Example 97, 5-(Benzofuran-5-yl)-3-phenylpyrazolo[1,5-a]pyrimidin-7(4H)-one]
≤ 10 µM | ≤ 10 µM | ≤ 10 µM | O=c1cc(-c2ccc3c(c2)CCO3)[nH]c2c(-c3ccccc3)cnn12 [Example 98, 5-(2,3-Dihydrobenzofuran-5-yl)-3-phenylpyrazolo[1,5-a]pyrimidin-7(4H)-one]
≤ 10 µM | ≤ 10 µM | ≤ 10 µM | O=c1cc(-c2ccc3c(c2)CCO3)[nH]c2c(-c3cccnc3)cnn12 [Example 99, 5-(2,3-Dihydrobenzofuran-5-yl)-3-(pyridin-3-yl)pyrazolo[1,5-a]pyrimidin-7(4H)-one]
≤ 10 µM | ≤ 10 µM | ≤ 10 µM | O=c1cc(-c2ccc3c(c2)OCO3)[nH]c2c(-c3cccnc3)c(O)nn12 [Example 100, 5-(Benzo[d][1,3]dioxol-5-yl)-2-hydroxy-3-(pyridin-3-yl)pyrazolo[1,5-a]pyrimidin-7(4H)-one]
≤ 10 µM | ≤ 10 µM | ≤ 10 µM | O=c1cc(-c2ccc3c(c2)OCCO3)[nH]c2c(-c3ccccn3)c(O)nn12 [Example 102, 5-(2,3-Dihydrobenzo[b][1,4]dioxin-6-yl)-2-hydroxy-3-(pyridin-2-yl)pyrazolo[1,5-a]pyrimidin-7(4H)-one]
≤ 10 µM | ≤ 10 µM | ≤ 10 µM | O=c1cc(-c2ccc3c(c2)OCCO3)[nH]c2c(-c3ccccc3)c(O)nn12 [Example 103, 5-(2,3-Dihydrobenzo[b][1,4]dioxin-6-yl)-2-hydroxy-3-phenylpyrazolo[1,5-a]pyrimidin-7(4H)-one]
≤ 10 µM | ≤ 10 µM | ≤ 10 µM | O=C(c1cnn2c(=O)cc(-c3ccc4c(c3)OCCO4)[nH]c12)N1CCOCC1 [Example 106, 5-(2,3-Dihydrobenzo[b][1,4]dioxin-6-yl)-3-(morpholine-4-carbonyl)pyrazolo[1,5-a]pyrimidin-7(4H)-one]
≤ 10 µM | ≤ 10 µM | ≤ 10 µM | CN1CCN(C(=O)c2cnn3c(=O)cc(-c4ccc5c(c4)OCCO5)[nH]c23)CC1 [Example 107, 5-(2,3-Dihydrobenzo[b][1,4]dioxin-6-yl)-3-(4-methylpiperazine-1-carbonyl)pyrazolo[1,5-a]pyrimidin-7(4H)-one]
≤ 10 µM | ≤ 10 µM | ≤ 10 µM | O=C(NCc1ccccc1)c1cnn2c(=O)cc(-c3ccc4c(c3)OCCO4)[nH]c12 [Example 108, N-Benzyl-5-(2,3-dihydrobenzo[b][1,4]dioxin-6-yl)-7-oxo-4,7-dihydropyrazolo[1,5-a]pyrimidine-3-carboxamide]
≤ 10 µM | ≤ 10 µM | ≤ 10 µM | O=c1cc(-c2ccc(Cl)cc2)[nH]c2c(-c3ccccn3)cnn12 [Example 109, 5-(4-Chlorophenyl)-3-(pyridin-2-yl)pyrazolo[1,5-a]pyrimidin-7(4H)-one]
≤ 10 µM | ≤ 10 µM | ≤ 10 µM | COc1ccc(-c2cc(=O)n3ncc(-c4ccccn4)c3[nH]2)c(OC)c1 [Example 110, 5-(2,4-Dimethoxyphenyl)-3-(pyridin-2-yl)pyrazolo[1,5-a]pyrimidin-7(4H)-one]
≤ 10 µM | ≤ 10 µM | ≤ 10 µM | COc1ccc(-c2cc(=O)n3ncc(-c4ccccn4)c3[nH]2)cc1OC [Example 111, 5-(3,4-Dimethoxyphenyl)-3-(pyridin-2-yl)pyrazolo[1,5-a]pyrimidin-7(4H)-one]
≤ 10 µM | ≤ 10 µM | ≤ 10 µM | N#Cc1cnn2c(=O)cc(-c3ccc4c(c3)OCCO4)[nH]c12 [Example 113, 5-(2,3-Dihydrobenzo[b][1,4]dioxin-6-yl)-7-oxo-4,7-dihydropyrazolo[1,5-a]pyrimidine-3-carbonitrile]
≤ 10 µM | ≤ 10 µM | ≤ 10 µM | NC(=O)c1cnn2c(=O)cc(-c3ccc4c(c3)OCCO4)[nH]c12 [Example 114, 5-(2,3-Dihydrobenzo[b][1,4]dioxin-6-yl)-7-oxo-4,7-dihydropyrazolo[1,5-a]pyrimidine-3-carboxamide]
≤ 10 µM | ≤ 10 µM | ≤ 10 µM | O=c1c2c([nH]c3c(-c4ccccn4)cnn13)-c1ccccc1CC2 [Example 116, 11-(Pyridin-2-yl)-5,6-dihydrobenzo[h]pyrazolo[5,1-b]quinazolin-7(12H)-one]
≤ 10 µM | ≤ 10 µM | ≤ 10 µM | O=c1cc(-c2ccc3c(c2)OCCO3)[nH]c2c(-c3ccccc3)c(C(F)(F)F)nn12 [Example 117, 5-(2,3-Dihydrobenzo[b][1,4]dioxin-6-yl)-3-phenyl-2-(trifluoromethyl)pyrazolo[1,5-a]pyrimidin-7(4H)-one]
